pIC50: −log10 of the molar value.
System: Mac-1 and LFA-1-mediated neutrophil binding to immobilized ICAM-1
Test: Neutrophil (Mac-1 and LFA-1)/ICAM-1 cell-based screening assay
Conditions: human neutrophils
Description: Both Mac-1 and LFA-1 are expressed on the cell surface of neutrophils. The ability of antagonists to inhibit Mac-1 and LFA-1-mediated neutrophil binding to immobilized ICAM-1 was quantitated by a cell based assay. Typically, fusion protein consisting of the entire extracellular domain of human ICAM-1 and the Fc domain of human IgG (5dICAM-Ig) was coated onto 96 well microtiter plates (1 μg in 100 μL TBS) overnight at 4° C. The plates were then blocked with 150 μL of 10% PVP in TBS for 1 h at 37° C. Plates were washed 3 times (150 μL each) with TBS. Human neutrophils were purified from whole blood from healthy volunteers using LSM (ICN). Cells (8×10^6/mL) were fluorescently labeled with 6-carboxyfluorescein (100 μg/mL) for 40 min in IMDM/1 mM MgCl2/1.2 mM CaCl2 as described in Example 287. Cells (8×10^6/mL) were stimulated with f-Met-Leu-Phe (10 μM) for 5 min at room temperature just prior to being used in the assay, and diluted to 2×10^6 cells/mL with RPMI/0.05% BSA/0.2 mM MnCl2. Stock solutions (10 mM) of test compounds were diluted to 2.5 mM with DMSO. A series of 1:4 dilutions in DMSO were performed to achieve a concentration range of 38.2 nM-2.5 mM. Each sample was further diluted 50-fold with RPMI/0.05% BSA/0.2 mM MnCl2. Equal volumes of labeled cells were then added to assay tubes containing diluted compound. Final concentrations of compound tested in the assay ranged from 0.38 nM-25 μM with a cell concentration of 1×10^6 per mL. Cells were incubated for 10 min at 37° C. with gentle shaking, then dispensed (100 μL per well) onto ICAM-1 coated plates and incubated for 30 min at 37° C./5% CO2. Unbound cells were washed and plates were read on a Cytofluor™ 2300 (Millipore) as described in Example 384.

pIC50 | Structure (SMILES)
7.20 | COc1cccc(C(=O)NC[C@H](NC(=O)c2ccc(C(=O)NCc3cccc(O)c3)cc2Cl)C(=O)O)c1 [Example 76, N-[2-chloro-4-[[[(3-hydroxyphenyl)methyl]amino]-carbonyl]benzoyl]-3-(3-methoxybenzoylamino)-L-alanine]
7.03 | CC1(C(=O)NC[C@H](NC(=O)c2ccc(C(=O)NCc3cccc(O)c3)cc2Cl)C(=O)O)CCCCC1 [Example 105]
7.43 | Nc1cccc(C(=O)NC[C@H](NC(=O)c2ccc(C(=O)NCc3cccc(O)c3)cc2Cl)C(=O)O)c1 [Example 118]
6.66 | NS(=O)(=O)c1ccc(C(=O)NC[C@H](NC(=O)c2ccc(C(=O)NCc3cccc(O)c3)cc2Cl)C(=O)O)cc1 [Example 119]
7.68 | O=C(NCc1cccc(O)c1)c1ccc(C(=O)N[C@@H](CNC(=O)c2cccc(Cl)c2)C(=O)O)c(Cl)c1 [Example 123]
7.57 | O=C(NCc1cccc(O)c1)c1ccc(C(=O)N[C@@H](CNC(=O)c2cccc(F)c2)C(=O)O)c(Cl)c1 [Example 131]
8.31 | O=C(NCc1cccc(O)c1)c1ccc(C(=O)N[C@@H](CNC(=O)c2cccc(O)c2)C(=O)O)c(Cl)c1 [Example 132]
7.51 | Cc1cccc(C(=O)NC[C@H](NC(=O)c2ccc(C(=O)NCc3cccc(O)c3)cc2Cl)C(=O)O)c1 [Example 138]
7.19 | O=C(NCc1cccc(O)c1)c1ccc(C(=O)N[C@@H](CNC(=O)c2ccc(Br)s2)C(=O)O)c(Cl)c1 [Example 155]
7.64 | Cc1ccc(C(=O)NC[C@H](NC(=O)c2ccc(C(=O)NCc3cccc(O)c3)cc2Cl)C(=O)O)s1 [Example 160]
7.36 | O=C(NCc1cccc(O)c1)c1ccc(C(=O)N[C@@H](CNC(=O)c2ccsc2)C(=O)O)c(Cl)c1 [Example 161]
8.01 | C[C@@H](NC(=O)c1cc(Cl)c(C(=O)N[C@@H](CNC(=O)c2cccs2)C(=O)O)c(Cl)c1)c1cccc2ccccc12 [Example 346, N-[2,6-dichloro-4-[[[(1R)-1-(1-naphthalenyl)ethyl]amino]carbonyl]benzoyl]-3-[(thiophene-2-carbonyl)amino]-L-alanine]
7.79 | C[C@@H](NC(=O)c1cc(Cl)c(C(=O)N[C@@H](CNC(=O)c2ccccc2)C(=O)O)c(Cl)c1)c1cccc2ccccc12 [Example 347]
8.33 | O=C(NCc1cccc(O)c1)c1cc(Cl)c(C(=O)N[C@@H](CNC(=O)c2cccc(F)c2)C(=O)O)c(Cl)c1 [Example 349]
9.15 | O=C(NCc1cccc(O)c1)c1cc(Cl)c(C(=O)N[C@@H](CNC(=O)c2cccc(O)c2)C(=O)O)c(Cl)c1 [Example 350]
8.57 | COc1ccc(C(=O)NC[C@H](NC(=O)c2c(Cl)cc(C(=O)NCc3cccc(O)c3)cc2Cl)C(=O)O)cc1O [Example 351]
7.73 | O=C(NCc1cccc(O)c1)c1cc(Cl)c(C(=O)N[C@@H](CNC(=O)c2sccc2Br)C(=O)O)c(Cl)c1 [Example 353]
8.33 | O=C(NCc1cccc(O)c1)c1cc(Cl)c(C(=O)N[C@@H](CNC(=O)c2ccc(Br)s2)C(=O)O)c(Cl)c1 [Example 354]
8.37 | Cc1ccc(C(=O)NC[C@H](NC(=O)c2c(Cl)cc(C(=O)NCc3cccc(O)c3)cc2Cl)C(=O)O)s1 [Example 358]
